The values that follow come from US20110207726A1, “Inhibitors of Human Cathepsin L, Cathepsin B, and Cathepsin S” (The Trustees of the University of Pennsylvania, priority 2008, published 2011).

Molecules are shown by their SMILES. Like-named read-outs stand apart in the source and are kept apart here.

Data set [1] has as its system Vesicular stomatitis virus (VSV). Put plainly: microbe, parasite or virus in culture. The format is cell-based. The conditions noted are these: read-out: IC50, VSV entry (control).
The next data set deals with Ebola virus pseudotype. Put plainly: microbe, parasite or virus in culture. The class given is cell-based. The note with it: read-out: IC50, Ebola virus pseudotype entry.
In the next data set the test system is zebrafish. Kind of data set: Zebrafish live organism toxicity assay. The note with it: at 100 μM.
The target in the next data set is T1, Human spleen cathepsin S (Homo sapiens, UniProt P25774).
T1 construct: Human spleen cathepsin S (Calbiochem 219344, 40 ng/mL); purchased Calbiochem 219344; host or cells: human spleen
Put plainly: Cathepsin S assay, IC50 determination. The format is biochemical. The note with it: Tables 2-11; read-out: Cat S. A digest of the protocol:
(§1)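 Spleen cathepsin S (40 ng/mL) with 15 microM Z-Phe-Arg-AMC and liver cathepsin B (65 ng/mL) with 15 microM Z-Arg-Arg-AMC, in 20 mM sodium acetate, 1 mM EDTA, 5 mM cysteine, pH 5.5. AMC fluorescence release monitored; IC50 measured in triplicate.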

The target in another data set is human cathepsin L (Homo sapiens, UniProt P07711). Put plainly: Preincubation studies, cathepsin L. The note with it: preincubation with enzyme 4 h; read-out: IC50 against human cathepsin L after 4 hours preincubation. The class given is biochemical. Set-up: 8.7 ng/mL human liver cathepsin L (Calbiochem 219402); purchased Calbiochem 219402; host or cells: human liver. The protocol: To establish the time-dependent mechanism of inhibition, enzyme and inhibitor were preincubated for various time points in a 96-well microplate prior to the addition of substrate to initiate the enzymatic reaction. 47.5 μL of cathepsin L (18.3 ng/mL) and 47.5 μL of Compound No. 1 at various concentrations in assay buffer were incubated up to 4 hours. Five μL of Z-Phe-Arg-AMC substrate were then added and the plate was monitored for AMC hydrolysis on the Envision fluorescent microplate reader.

The subject of data set [2] is SARS coronavirus pseudotype. Kind of data set: microbe, parasite or virus in culture. The note with it: read-out: IC50, SARS-CoV pseudotype entry. The format is cell-based.
Data set [3] deals with T2, human liver cathepsin L (Homo sapiens, UniProt P07711).
T2 construct: 8.7 ng/mL human liver cathepsin L (Calbiochem 219402); purchased Calbiochem 219402; host or cells: human liver
Put plainly: Cathepsin L assay, IC50 determination. The format is biochemical. A digest of the protocol:
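Enzyme (300 pM) pre-activated for 30 min in 20 mM sodium acetate, 1 mM EDTA, 5 mM cysteine, pH 5.5, then incubated 1 h at room temperature with 1 microM Z-Phe-Arg-AMC and compound. Fluorescent read-out on a microplate reader; IC50 in triplicate.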

In a further data set the target is T3, Human liver cathepsin B (Homo sapiens, UniProt P07858).
T3 construct: Human liver cathepsin B (Calbiochem 219362, 65 ng/mL); purchased Calbiochem 219362; host or cells: human liver
Put plainly: Cathepsin B assay, IC50 determination. The format is biochemical. The conditions noted are these: for Selectivity Index (IC50 Cat B)/(IC50 Cat L): Cathepsin B vs cathepsin L. A digest of the protocol:
as §1

The target in data set [4] is T2, human liver cathepsin L. Put plainly: HTS of MLSMR library and confirmatory dose response against cathepsin L. The format is biochemical. The note with it: 10 μM compound. The protocol:
57,821 compounds from the NIH Molecular Libraries Small Molecule Repository (MLSMR) were screened against human liver cathepsin L. This screen was performed in 384-well Corning 3676 black, low-volume, non-binding surface (NBS)-coated polystyrene plates using a total reaction volume of 10 μL per well. Final well concentrations were: 10 μM compound (2% DMSO), 300 pM (8.7 ng/mL) human liver cathepsin L, 1 μM Z-FR-AMC substrate, and 20 mM sodium acetate buffer containing 1 mM EDTA and […], pH 5.5. Cathepsin L was activated in the assay buffer for 30 minutes prior to dispensing into wells. Assay plates were incubated at room temperature for one how and the fluorescence intensity of each well was read with a PerkinElmer Envision plate reader (Ex: 355 nm, Em: 460 nm) to measure hydrolysis of the AMC substrate.
Library samples containing 2,5-disubstituted oxadiazoles were identified as potent hits in a high throughput screen of the NIH Molecular Libraries Small Molecule Repository directed at discovering inhibitors of cathepsin L (Table I). […] Analyses by LC-MS of original library samples indicated the presence of a number of impurities, in addition to the oxadiazoles. Synthesis and bioassay of the probable impurities led to the identification of a thiocarbazate that likely originated via ring opening of the oxadiazole. […]

T2 sequence (P07711 114-288 limits assumed): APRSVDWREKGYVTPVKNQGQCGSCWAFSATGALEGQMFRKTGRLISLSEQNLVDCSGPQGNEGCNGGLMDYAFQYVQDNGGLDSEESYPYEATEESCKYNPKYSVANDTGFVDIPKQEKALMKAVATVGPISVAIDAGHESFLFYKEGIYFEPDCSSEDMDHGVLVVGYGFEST
T2 sequence (P07711 292-333 limits assumed): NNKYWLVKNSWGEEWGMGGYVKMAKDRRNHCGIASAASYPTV
T1 sequence (P25774 115-331): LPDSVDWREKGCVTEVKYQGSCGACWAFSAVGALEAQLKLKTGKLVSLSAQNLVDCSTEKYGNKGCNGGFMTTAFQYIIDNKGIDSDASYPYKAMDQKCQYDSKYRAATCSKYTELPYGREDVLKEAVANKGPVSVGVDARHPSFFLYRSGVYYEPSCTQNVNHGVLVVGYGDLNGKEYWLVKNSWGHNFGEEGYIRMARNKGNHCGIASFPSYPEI
Chain of human cathepsin L (P07711 114-288 limits assumed): as the sequence (P07711 114-288 limits assumed) above
Chain of human cathepsin L (P07711 292-333 limits assumed): as the sequence (P07711 292-333 limits assumed) above

Regarding `CC(C)(C)OC(=O)N[C@@H](Cc1c[nH]c2ccccc12)C(=O)NNC(=O)OCC(=O)N1CCCc2ccccc21` [Compound No. 96], the IC50 in [1] (Vesicular stomatitis virus) was no less than 10 µM; in data set [1], greater than 10 µM; in the data set with Ebola virus pseudotype (Zaire ebolavirus, HEK-293T) it was 0.193 ± 0.039 µM; with Ebola virus pseudotype, roughly 0.2 µM; on Human spleen cathepsin S, 0.025 µM; at human cathepsin L, 0.0004 µM. Also, the IC50 in data set [2] (Severe acute respiratory syndrome coronavirus, HEK-293T) was 0.273 ± 0.049 µM; in data set [2] it was roughly 0.2 µM; on human liver cathepsin L [3] (Tables 2-11, read-out: Cat L), 0.006 µM; on human liver cathepsin L [3] (no preincubation of enzyme and inhibitor, read-out: IC50 against cathepsin L (no preincubation)) it was 0.0069 µM; at Human liver cathepsin B (Table 18, Cathepsin B, human liver, no preincubation, read-out: IC50), 5.07 ± 0.883 µM; at Human liver cathepsin B (Tables 2-11, read-out: Cat B) it was 10.1 µM. For the same molecule, in the data set on zebrafish, the toxicity to zebrafish result was “Non-toxic to zebrafish at 100 μM”. For the same molecule, on human liver cathepsin L [3] (Table 18, Cathepsin L), the “Selectivity Index” value was 1.0. Besides, the “Selectivity Index (IC50 Cat B)/(IC50 Cat L)” value on Human liver cathepsin B (no preincubation) was 724.6; at Human liver cathepsin B (no preincubation, listed as SID 46493575), 725.
On to `CC(C)C[C@H](NC(=O)[C@H]1O[C@@H]1C(=O)O)C(=O)NCCCCN=C(N)N` [E-64], for which the “HTS identification as cathepsin L inhibitor (in words)” value on human liver cathepsin L [4] is reported as “potent inhibitors of cathepsin L”.
Same read-out and setting: the entry for `CC(C)CCNC(=O)[C@H](CC(C)C)NC(=O)[C@H]1O[C@@H]1C(=O)O` [E-64c] is “potent inhibitors of cathepsin L”.
